Like-named read-outs stand apart in the source and are kept apart here.
Legend:
human neutrophils = assay: Inhibition of superoxide (O₂⁻) generation from neutrophils; format: cell-based; conditions: Neutrophil
From the text: (§1) The one assay provides IC₅₀'s for the inhibition of superoxide generation. DeChatelet, L. R., Shirley, P. S. and Johnson, R. B. 1976. Effect of phorbol myristate acetate on the oxidative metabolism of human polymorphonuclear leukocytes. Blood 47:545-554. The other assay is a generally recognized in vivo assay to show activity useful for treating ARDS. The in vivo assay is described in J. Clin. Invest., Vol. 69, May 1982, pp 1126-1135.
The activity for each of these compounds as numbered above is expressed as IC₅₀'s for the inhibition of superoxide generation and is shown in the following Table A: TABLE A
Further, activity for compounds of examples noted in the following Table A₁ likewise show IC₅₀'s for the inhibition of superoxide generation. TABLE A1

[1] = test system: CVF Induced Lung Injury in Rats; assay: Inhibition of cobra venom factor (CVF) induced lung injury in rats (in vivo ARDS assay); conditions: for Lung Injury (x ± SEM): saline control 0.20 ± 0.01, CVF alone 1.45 ± 0.19
From the text: as §1
Accordingly, the compounds of the Formula II are now found to be particularly useful for treating ARDS shown by the inhibition of cobra venom factor (CVF) induced lung injury in rats using the Compound No. 1 above in the in vivo assay shown as follows in Table B: TABLE B

[2] = Table A1, read-out: IC₅₀ (µM) Inhibition of O₂⁻ generation from neutrophils
[3] = Table A, read-out: IC₅₀ (µM) Inhibition of O₂⁻ generation from neutrophils
[4] = given intravenously (20 mg/kg) 10 minutes before intravenous injection of CVF
[5] = injected intraperitoneally (20 mg/kg) 20 minutes before CVF

Compound	IC50 (human neutrophils; [2])	IC50 (human neutrophils; [3])	other results
COc1ccc2c(Oc3ccccc3)c(C(=O)Nc3nnn[nH]3)sc2c1 [Example C21D, 6-Methoxy-3-phenoxy-N-1H-tetrazol-5-yl-benzo[b]thiophene-2-carboxamide]	> 100 µM		
COc1ccc2c(OC(C)C)c(C(=O)Nc3nnn[nH]3)oc2c1 [compound 4, 6-Methoxy-3-(1-methylethoxy)-N-1H-tetrazol-5-yl-2-benzofurancarboxamide]		75 µM	
COc1cc2sc(C(=O)Nc3nnn[nH]3)c(Oc3ccccc3)c2cc1OC [Example C21]	6 µM		
COc1cc2sc(C(=O)Nc3nnn[nH]3)c(OCc3ccccc3)c2cc1OC [Example C21A, 5,6-Dimethoxy-3-(phenylmethoxy)-N-1H-tetrazol-5-yl-benzo[b]thiophene-2-carboxamide]	40 µM		
COc1ccc2sc(C(=O)Nc3nnn[nH]3)c(SC(C)C)c2c1 [compound 3, 5-Methoxy-3-[(1-methylethyl)thio-N-1Htetrazol-5-yl]-benzo[b]thiophene-2-carboxamide]		23 µM	
COc1ccc2sc(C(=O)Nc3nnn[nH]3)c(OC(C)C)c2c1 [Compound No. 1, 5-Methoxy-3-(1-methylethoxy)-N-1H-tetrazol-5-yl-benzo[b]thiophene-2-carboxamide]		19 µM	Protection % Inhibition of Injury [1, 4]: 76%; Lung Injury (x ± SEM) [1, 4]: 0.48 ± 0.08; Protection % Inhibition of Injury [1, 5]: 58%; Lung Injury (x ± SEM) [1, 5]: 0.73 ± 0.06
COc1ccc2sc(C(=O)Nc3nnn[nH]3)c(OCc3ccccc3)c2c1 [compound 5, 3-Benzyloxy-5-methoxy-N-1H-tetrazol-5-yl-benzo[b]thiophene-2-carboxamide]		23 µM	
COc1ccc2sc(C(=O)Nc3nnn[nH]3)c(Oc3ccccc3)c2c1 [compound 6, 5-Methoxy-3-phenoxy-N-1H-tetrazol-5-yl-benzo[b]thiophene-2-carboxamide]		10 µM	
COc1ccc2c(OC(C)C)c(C(=O)Nc3nnn[nH]3)sc2c1 [compound 2, 6-Methoxy-3-(1-methylethoxy)-N-1H-tetrazol-5-yl-benzo[b]thiophene-2-carboxamide]		37 µM	
CC(C)Oc1c(C(=O)Nc2nnn[nH]2)sc2ccc(O)cc12 [Example C20A, 3-(1-Methylethoxy)-5-hydroxy-N-1H-tetrazol-5-yl-benzo[b]-thiophene-2-carboxamide]	48 µM		
